# According to patent publication US20260250322A1, “NEW PEPTIDES AS SELECTIVE IL-23 RECEPTOR INHIBITORS” (SANOFI, priority 2023, published 2026):
# Bridge positions count the residues as written; N and C are the ends. Square brackets hold non-standard residues; d marks the D form. Peptide text beside a SMILES is read from it. Trp(1-Me) = Cn1cc(C[C@H](N)C(=O)O)c2ccccc21; dAla(4-thiazolyl) = N[C@H](Cc1cscn1)C(=O)O; 1Nal = N[C@@H](Cc1cccc2ccccc12)C(=O)O; 2Nal = N[C@@H](Cc1ccc2ccccc2c1)C(=O)O; Cit = NC(=O)NCCC[C@H](N)C(=O)O; αMeL = CC(C)C[C@](C)(N)C(=O)O; Orn = NCCC[C@H](N)C(=O)O; Thp = NC1(C(=O)O)CCOCC1; Aib = CC(C)(N)C(=O)O
# Legend:
# [1] = tested on: IL-23 induced STAT3 signaling; assay: Inhibition of IL-23 induced STAT3 signaling in HEK-Blue IL-23 cells (SEAP reporter); format: cell-based; settings: human IL-23 0.25 ng/ml, read-out: Inhibition of IL-23 induced pSTAT3 (IC50 nM)
# Description: HEK-Blue™ IL-23 cells (Invivogen) are designed for the detection of bioactive human (hIL-23) and murine IL-23 (mIL-23) by monitoring the activation of the STAT3 pathway. Binding of IL-23 to its receptor on the surface of HEK-Blue™ IL-23 cells triggers a signaling cascade leading to the activation of STAT3 and the subsequent production of secreted embryonic alkaline phosphatase (SEAP). This can be readily assessed using QUANTI-Blue™ Solution, a SEAP detection reagent.
# HEK-Blue™ IL-23 cells were cultured as described by Invivogen.
# On the first day of assay 10 μL of the HEK-Blue IL-23 cell suspension (final concentration: 10,000 cells/well) and 10 μl of serially diluted compound solutions were dispensed into a 384-well assay plate. After pre-incubation of the reaction mixtures at 37° C./5% CO2/95% humidity for 60 minutes, 10 μl of the humanIL-23 cytokine (final concentration: 0.25 ng/ml) was added to each well for the STAT3 signaling activation. The plate was incubated overnight at 37° C./5% CO2/95% humidity.
# On the second day 20 μl per well of Quanti-Blue detection solution (prepared according to the manufacture instruction) was dispensed into a new 384-well plate and followed by the transfer of 5 μl supernatant of the overnight incubated cell/sample mixtures. After incubation of 45 min at room temperature signals were measured with PHERAstar (BMG) at OD 620-655 nm.
# Dose response data were fitted with XLfit.
# human IL-23R = biological target: T1, human IL-23R (Homo sapiens, UniProt Q5VWK5); assay: Human ELISA IL-23/IL-23R binding inhibition; settings: human IL-23 coated, recombinant human IL-23R-Fc chimera
# T1 sequence (Q5VWK5 24-355 limits assumed): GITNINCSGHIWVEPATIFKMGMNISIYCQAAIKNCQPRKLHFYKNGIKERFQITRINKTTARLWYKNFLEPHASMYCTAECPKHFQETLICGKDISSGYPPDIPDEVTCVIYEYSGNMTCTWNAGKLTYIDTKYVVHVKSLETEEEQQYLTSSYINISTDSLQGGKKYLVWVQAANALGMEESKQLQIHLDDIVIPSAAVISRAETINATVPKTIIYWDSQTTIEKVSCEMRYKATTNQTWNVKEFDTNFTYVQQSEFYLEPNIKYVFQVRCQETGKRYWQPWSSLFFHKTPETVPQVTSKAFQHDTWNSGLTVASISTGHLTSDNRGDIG
# Method: Antagonism of peptide compounds for human interleukin-23 receptor inhibitors, was determined by an ELISA assay.
# A 384-well plate was coated with 50 μl/well of human IL-23 at a final concentration of 1 μg/ml and incubated overnight at 4° C. The wells were washed 3 times with 80 μl wash buffer and blocked with 80 μl blocking buffer for 60 minutes at room temperature and washed again. 20 μl of serially diluted test peptides was added to each well and subsequently 20 μl of recombinant human IL-23R-Fc chimera at final concentration of 0.1 μg/ml. The plate was incubated for 60 minutes at room temperature. After the wells were washed, bound IL-23R-Fc was detected with goat anti-hu-lgG1-HRP antibody. Signals were visualized with QuantaBlu Fluorogenic Peroxidase Substrate.
# [2] = Chemical stability (relative purity loss) of peptide compounds in buffer formulations; format: physicochemical
# Method: Purity of a compound batch was determined through UHPLC/MS prior to chemical stability measurement using Method A.
# For stability assessment, the target concentration was 300 μM pure compound. Therefore, solutions from solid samples were prepared in the following buffer systems with a concentration of ~300 µM compound based on the previously determined % purity. The solid samples were obtained by drying down aliquots of a freshly prepared acetonitrile stock solution using a THERMO SPEEDVAC vacuum centrifuge. The dry down time was 3 hours.
# The following buffer systems were applied: • Solubility buffer system A) 100 mM phosphate buffer pH 7.4. • Solubility buffer system B) 100 mM phosphate buffer pH 6.5. • Solubility buffer system C) 100 mM HCl pH 1.2.
# Prepared solutions were filtered through […] pore size and filled into sterilized glass containers under laminar flow conditions.
# […] After this time course, the samples were centrifuged for 15 min at 2500 RCF. Then 1.5 μl of the undiluted supernatant were analysed with UHPLC-UV.
# The chemical stability was rated through the relative loss of purity calculated by the equation:
# [(purity after 0 hours at 37° C.)(purity after 24 hours at 37° C.)]/(purity after 0 hours at 37° C.)]*100%.
# The purity is calculated as [(peak area peptide)/(total peak area)]*100%.
# Buffer composition: 100 mM HCl pH 1.2, 100 mM phosphate buffer pH 6.5, 100 mM phosphate buffer pH 7.4
# [3] = pH 6.5 (100 mM phosphate buffer)
# [4] = pH 7.4 (100 mM phosphate buffer)
smiles,measurement,setting,value
COc1ccc(C[C@@H]2NC(=O)[C@H](CCCNC(=N)N)NC(=O)[C@H](CCC(N)=O)NC(=O)[C@H](Cc3c[nH]c4ccccc34)NC(=O)[C@H]([C@@H](C)O)NC(=O)[C@H](CC(N)=O)NC(=O)[C@H](NC(C)=O)CCCCNC(=O)C[C@@H](C(=O)N[C@@H](CC(N)=O)C(=O)N[C@@H](CC(N)=O)C(N)=O)NC(=O)C(C)(C)NC(=O)[C@H](Cc3ccc4ccccc4c3)NC2=O)cc1 [compound 3] (Ac-[dK]NTWQRY(Me)[2Nal][Aib]DNN-NH2; lactam 1-10),IC50,[1],430 nM
same,IC50,human IL-23R,1.55 nM
same,Conc. [mg/ml] 0 h,[2]; pH 1.2 (100 mM HCl),1.5 mg/mL
same,Conc. [mg/ml] 24 h 37° C.,[2]; pH 1.2 (100 mM HCl),1.1 mg/mL
same,Mass Balance [%] 24 h 37° C.,[2]; pH 1.2 (100 mM HCl),−3.4%
same,Relative Purity Loss [%] 24 h 37° C.,[2]; pH 1.2 (100 mM HCl),23.2%
same,Conc. [mg/ml] 0 h,[2]; [3],1.2 mg/mL
same,Conc. [mg/ml] 24 h 37° C.,[2]; [3],1.1 mg/mL
same,Mass Balance [%] 24 h 37° C.,[2]; [3],−3.6%
same,Relative Purity Loss [%] 24 h 37° C.,[2]; [3],1.1%
same,Conc. [mg/ml] 0 h,[2]; [4],1.4 mg/mL
same,Conc. [mg/ml] 24 h 37° C.,[2]; [4],1.3 mg/mL
same,Mass Balance [%] 24 h 37° C.,[2]; [4],−3.1%
same,Relative Purity Loss [%] 24 h 37° C.,[2]; [4],3.6%
COc1ccc(C[C@@H]2NC(=O)[C@H](CCCNC(=N)N)NC(=O)[C@H](CCC(N)=O)NC(=O)[C@H](Cc3c[nH]c4ccccc34)NC(=O)[C@H]([C@@H](C)O)NC(=O)[C@H](CC(N)=O)NC(=O)[C@@H](NC(C)=O)CC(=O)NCCC[C@@H](C(=O)N[C@@H](CC(N)=O)C(=O)N[C@@H](CC(N)=O)C(N)=O)NC(=O)C(C)(C)NC(=O)[C@H](Cc3ccc4ccccc4c3)NC2=O)cc1 [compound 6] (Ac-DNTWQRY(Me)[2Nal][Aib][Orn]NN-NH2; lactam 1-10),IC50,[1],366 nM
same,IC50,human IL-23R,1.96 nM
same,Conc. [mg/ml] 0 h,[2]; pH 1.2 (100 mM HCl),1.6 mg/mL
same,Conc. [mg/ml] 24 h 37° C.,[2]; pH 1.2 (100 mM HCl),1.1 mg/mL
same,Mass Balance [%] 24 h 37° C.,[2]; pH 1.2 (100 mM HCl),−3.8%
same,Relative Purity Loss [%] 24 h 37° C.,[2]; pH 1.2 (100 mM HCl),27.3%
same,Conc. [mg/ml] 0 h,[2]; [3],1.4 mg/mL
same,Conc. [mg/ml] 24 h 37° C.,[2]; [3],1.3 mg/mL
same,Mass Balance [%] 24 h 37° C.,[2]; [3],−1.4%
same,Relative Purity Loss [%] 24 h 37° C.,[2]; [3],0.6%
same,Conc. [mg/ml] 0 h,[2]; [4],1.4 mg/mL
same,Conc. [mg/ml] 24 h 37° C.,[2]; [4],1.3 mg/mL
same,Mass Balance [%] 24 h 37° C.,[2]; [4],−4.8%
same,Relative Purity Loss [%] 24 h 37° C.,[2]; [4],1.4%
COc1ccc(C[C@@H]2NC(=O)[C@H](C(C)C)NC(=O)[C@H](CCC(N)=O)NC(=O)[C@H](Cc3c[nH]c4ccccc34)NC(=O)[C@H]([C@@H](C)O)NC(=O)[C@H](CC(N)=O)NC(=O)[C@H](NC(C)=O)CCCCNC(=O)C[C@@H](C(=O)N[C@@H](CC(N)=O)C(=O)N[C@@H](CC(N)=O)C(N)=O)NC(=O)C(C)(C)NC(=O)[C@H](Cc3cccc4ccccc34)NC2=O)cc1 [compound 20] (Ac-[dK]NTWQVY(Me)[1Nal][Aib]DNN-NH2; lactam 1-10),IC50,[1],10000 nM
same,IC50,human IL-23R,15.9 nM
COc1ccc(C[C@@H]2NC(=O)[C@H](CCCNC(=N)N)NC(=O)[C@H](CCC(N)=O)NC(=O)[C@H](Cc3cn(C)c4ccccc34)NC(=O)[C@H]([C@@H](C)O)NC(=O)[C@H](CC(N)=O)NC(=O)[C@H](NC(C)=O)CCCCNC(=O)C[C@@H](C(=O)N[C@@H](CC(N)=O)C(=O)N[C@@H](CC(N)=O)C(N)=O)NC(=O)[C@](C)(CC(C)C)NC(=O)[C@H](Cc3cccc4ccccc34)NC2=O)cc1 [compound 23] (Ac-[dK]NT[Trp(1-Me)]QRY(Me)[1Nal][αMeL]DNN-NH2; lactam 1-10),IC50,[1],1960 nM
same,IC50,human IL-23R,12 nM
COc1ccc(C[C@@H]2NC(=O)[C@H](CCCNC(=N)N)NC(=O)[C@H](CCC(N)=O)NC(=O)[C@H](Cc3cn(C)c4ccccc34)NC(=O)[C@H]([C@@H](C)O)NC(=O)[C@H](CC(N)=O)NC(=O)[C@H](NC(C)=O)CCCCNC(=O)C[C@@H](C(=O)N[C@@H](CC(N)=O)C(=O)N[C@@H](CC(N)=O)C(N)=O)NC(=O)[C@](C)(CC(C)C)NC(=O)[C@H](Cc3ccc4ccccc4c3)NC2=O)cc1 [compound 24] (Ac-[dK]NT[Trp(1-Me)]QRY(Me)[2Nal][αMeL]DNN-NH2; lactam 1-10),IC50,[1],385 nM
same,IC50,human IL-23R,1.21 nM
COc1ccc(C[C@@H]2NC(=O)[C@H](CCCNC(=N)N)NC(=O)[C@H](CCC(N)=O)NC(=O)[C@H](Cc3cn(C)c4ccccc34)NC(=O)[C@H]([C@@H](C)O)NC(=O)[C@H](CC(N)=O)NC(=O)[C@H](NC(C)=O)CCCCNC(=O)C[C@@H](C(=O)N[C@@H](CC(N)=O)C(=O)N[C@@H](CC(N)=O)C(N)=O)NC(=O)[C@@H](Cc3cscn3)NC(=O)[C@H](Cc3ccc4ccccc4c3)NC2=O)cc1 [compound 25] (Ac-[dK]NT[Trp(1-Me)]QRY(Me)[2Nal][dAla(4-thiazolyl)]DNN-NH2; lactam 1-10),IC50,[1],3830 nM
same,IC50,human IL-23R,9.61 nM
COc1ccc(C[C@@H]2NC(=O)[C@H](CCCNC(=N)N)NC(=O)[C@H](CCC(N)=O)NC(=O)[C@H](Cc3c[nH]c4ccccc34)NC(=O)[C@H]([C@@H](C)O)NC(=O)[C@H](CC(N)=O)NC(=O)[C@H](NC(C)=O)CCCCNC(=O)C[C@@H](C(=O)N[C@@H](CC(N)=O)C(=O)N[C@@H](CC(N)=O)C(N)=O)NC(=O)[C@H](CCCNC(N)=O)NC(=O)[C@H](Cc3ccc4ccccc4c3)NC2=O)cc1 [compound 29] (Ac-[dK]NTWQRY(Me)[2Nal][Cit]DNN-NH2; lactam 1-10),IC50,[1],2720 nM
same,IC50,human IL-23R,5.63 nM
COc1ccc(C[C@@H]2NC(=O)[C@H](C(C)C)NC(=O)[C@H](CCC(N)=O)NC(=O)[C@H](Cc3c[nH]c4ccccc34)NC(=O)[C@H]([C@@H](C)O)NC(=O)[C@H](CC(N)=O)NC(=O)[C@H](NC(C)=O)CCCCNC(=O)C[C@@H](C(=O)N[C@@H](CC(N)=O)C(=O)N[C@@H](CC(N)=O)C(N)=O)NC(=O)C(C)(C)NC(=O)[C@H](Cc3ccc4ccccc4c3)NC2=O)cc1 [compound 31] (Ac-[dK]NTWQVY(Me)[2Nal][Aib]DNN-NH2; lactam 1-10),IC50,[1],128 nM
same,IC50,human IL-23R,8.27 nM
COc1ccc(C[C@@H]2NC(=O)C(C)(C)NC(=O)[C@H](CCC(N)=O)NC(=O)[C@H](Cc3c[nH]c4ccccc34)NC(=O)[C@H]([C@@H](C)O)NC(=O)[C@H](CC(N)=O)NC(=O)[C@H](NC(C)=O)CCCCNC(=O)C[C@@H](C(=O)N[C@@H](CC(N)=O)C(=O)N[C@@H](CC(N)=O)C(N)=O)NC(=O)C(C)(C)NC(=O)[C@H](Cc3ccc4ccccc4c3)NC2=O)cc1 [compound 32] (Ac-[dK]NTWQ[Aib]Y(Me)[2Nal][Aib]DNN-NH2; lactam 1-10),IC50,[1],320 nM
same,IC50,human IL-23R,2.68 nM
COc1ccc(C[C@@H]2NC(=O)[C@H](CCCNC(=N)N)NC(=O)[C@H](CCC(N)=O)NC(=O)[C@H](Cc3c[nH]c4ccccc34)NC(=O)[C@H]([C@@H](C)O)NC(=O)[C@H](CC(N)=O)NC(=O)[C@@H](NC(C)=O)CCCCNC(=O)C[C@@H](C(=O)N[C@@H](CC(N)=O)C(=O)N[C@@H](CC(N)=O)C(N)=O)NC(=O)C3(CCOCC3)NC(=O)[C@H](Cc3ccc4ccccc4c3)NC2=O)cc1 [compound 41] (Ac-KNTWQRY(Me)[2Nal][Thp]DNN-NH2; lactam 1-10),IC50,[1],221 nM
same,IC50,human IL-23R,1.47 nM
